The source of these data is patent US5863893A, “Factor VIIa inhibitors from kunitz domain proteins” (Genentech, Inc., priority 1995, dated 1999).

Test [1] deals with New Zealand white rabbits. Put plainly: Rabbit deep medial injury model (carotid artery patency and thrombus weight). The settings on record: for Clot (mgs): mean ±sem. It counts as in vivo. The method, then:
Male New Zealand white rabbits (~4 kg) were anesthetized to surgical anesthesia plane with an IM injection of Ketamine/Xylaxine. The rabbits were placed supine on a restraining board, warmed to 37° C., and the neck and inner thigh area shaved. Teflon catheters were replaced in a marginal ear vein and femoral artery for drug delivery and sample collection respectively. Prior to treatment, blood samples were collected for coagulation tests (APTT and PT). Bleeding time was assessed from a cut made in the cuticle portion of a hind limb nail. Incisions were made in the neck region and the entire left common carotid artery and its branches were surgically isolated. An ultrasonic flow probe (Transonics®) was placed on the common carotid approximately 5 cm caudal to the common-internal bifurcation. After blood flow reached a stable baseline, drugs (saline or test compounds) were delivered via the marginal ear vein. A deflated embolectomy catheter (Fogarty®, 3F) was then introduced into the lumen of the common via an incision in the lingual branch. Blood flow through the artery was stopped briefly while the catheter was introduced and loosely secured with 2-0 silk tie at the incision site. After the catheter was in place and secure, blood flow was restored. The deflated balloon was advanced to within 2 mm of the flow probe and inflated with saline until resistance of the vessel wall was felt. The catheter was pulled back with a steady motion to the first branch and then deflated. This procedure was repeated a total of six times for each experimental animal, after which the catheter was removed. […] Over 40 minutes, blood samples were taken for APTT and PT measurements, cuticle bleeding times were assessed and blood flow through the carotid monitored. Duration of patency was defined as the total amount of time (maximum=40 minutes) that any measurable blood flow is detected in the artery. Patency rate refers to the percentage of animals tested who had carotid artery blood flow ≥5 minutes. At the end of the experiment the rabbit was euthanized and the carotid artery removed and opened. If any thrombus was present, it was removed, blotted and the weight recorded.
[Heparin was dosed as a 25 u/kg bolus followed by a continuous infusion of 1) 0.5 u/kg/min or 2) 1 u/kg/min. Other reagents were given as a 2 mg/kg IV bolus. With the exception of the patency data, values are expressed as means ±sem.]

The test system of another test is TF-induced coagulation. The following applies: cited from earlier work.
The target of a further test is TF-FVIIa (Homo sapiens, UniProt P08709). The following applies: read-out: Ki, competitive inhibition of TF-FVIIa activity; cited from earlier work.
Another test relates to rabbit plasma. As to the kind of experiment: PT clotting time in rabbit plasma. It counts as biochemical. The following applies: 40 μM, rabbit thromboplastin diluted two-fold. The method, then:
Samples of rabbit plasma were assayed using an MLA 800 coagulometer and Dade reagents. Actin FS® was the activator in the APTT assay. Rabbit Thromboplastin with Ca++ was used for the PT assays; the rabbit thromboplastin was diluted two-fold. All mutant inhibitors tested prolonged clotting by at least one fold. […] A greater than 10 fold prolongation of the clotting time at 40 μM was observed.

Another test concerns normal human plasma. Put plainly: Activated partial thromboplastin time (APTT) assay. It counts as biochemical. The method, then:
For the activated partial thromboplastin time (APTT) assays, the activation time was set at 120 sec and acquisition time at 300 to 600 sec depending on the expected outcome of the assay. Citrated normal human plasma and inhibitor were incubated together. The sample (plasma and inhibitor) and activator (Instrumentation Laboratories Ellagic acid/Phospholipid mix Test Reagent) were automatically pipetted and incubated together for 2 min at 37° C., then CaCl2 was added and clotting time determined by means of optical assessment. The total incubation time of inhibitor with plasma was ca. 3 min before addition of activator, and 5 min before addition of CaCl2.

[2] abbreviates: 25 u/kg bolus then continuous infusion 0.5 u/kg/min.
[3] abbreviates: 25 u/kg bolus then continuous infusion 1 u/kg/min.

Chain of TF-FVIIa (P08709 213-466 limits assumed): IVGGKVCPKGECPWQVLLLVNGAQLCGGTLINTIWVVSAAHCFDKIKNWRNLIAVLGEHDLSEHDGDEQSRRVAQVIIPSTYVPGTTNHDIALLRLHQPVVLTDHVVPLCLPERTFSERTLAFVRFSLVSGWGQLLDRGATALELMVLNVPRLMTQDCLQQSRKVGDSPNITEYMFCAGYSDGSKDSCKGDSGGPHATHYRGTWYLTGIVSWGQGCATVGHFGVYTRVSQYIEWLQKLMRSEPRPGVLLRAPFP
Chain of TF-FVIIa (P08709 61-212 limits assumed): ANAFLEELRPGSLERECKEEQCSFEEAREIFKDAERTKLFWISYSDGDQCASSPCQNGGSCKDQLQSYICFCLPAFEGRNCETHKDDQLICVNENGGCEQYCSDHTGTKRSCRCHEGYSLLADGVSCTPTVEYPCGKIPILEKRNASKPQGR
Chain of TF-FVIIa (P13726 33-295 partner): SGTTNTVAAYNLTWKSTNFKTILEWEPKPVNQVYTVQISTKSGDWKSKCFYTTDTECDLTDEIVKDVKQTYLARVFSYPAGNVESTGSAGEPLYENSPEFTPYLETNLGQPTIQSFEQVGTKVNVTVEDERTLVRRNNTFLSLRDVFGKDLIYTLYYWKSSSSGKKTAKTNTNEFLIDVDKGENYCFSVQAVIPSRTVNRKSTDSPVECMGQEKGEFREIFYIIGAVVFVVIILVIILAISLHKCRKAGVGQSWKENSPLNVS

As for Heparin, in test [1] (setting [2]), the “Patency (%)” value is listed as 67% and the “Clot (mgs)” value was determined as 13.6 ± 4.7 mgs. Also, in test [1] (setting [3]), the “Patency (%)” value is given as 100% and the “Clot (mgs)” value stood at 19.1 ± 8.5 mgs. Besides, the “patency and clot size compared to the saline control (in words)” value in test [1] (doses as in Table III) was “significantly prolonged patency and reduced clot size”.
As for “Bovine pancreatic trypsin inhibitor [BPTI]”, the “concentration needed to prolong the clotting time 1.4-fold in a PT assay” value in the test with TF-induced coagulation was “ca. 75 pM”. Further, the Ki (as a rule, the dissociation constant of the complex between target and ligand, obtained from inhibition or displacement) at TF-FVIIa is 30 µM.
On to “Alzheimer's amyloid β-protein precursor inhibitor (VREVCSEQAETGPCRAMISRWYFDVTEGKCAPFFYGGCGGNRNNFDTEEYCMAVCGSA) [APPI]”, for which the “Patency (%)” value in test [1] (2 mg/kg IV bolus, animals with carotid artery blood flow ≥5 minutes) is on record as 40%. For the same substance, the “Clot (mgs)” value in test [1] (2 mg/kg IV bolus, thrombus weight) is 49.5 ± 18.2 mgs. Moreover, in the test with rabbit plasma, the “PT, fold increase over baseline” value is 1.4 fold. The “APTT clotting time, fold prolongation” value in the test on normal human plasma (40 μM inhibitor, uninhibited clotting time 31 s) is listed as 3.6 fold; in the test on normal human plasma (ca. 7 μM inhibitor), “ca. 3 fold”.
